According to paper PMC3894180, “GABAA Receptors Containing ρ1 Subunits Contribute to In Vivo Effects of Ethanol in Mice” (PLoS ONE, 2014):

Target: T1, human GABAA ρ2 receptor (homomeric) (Homo sapiens, UniProt P28476)
T1 construct: gene GABRR2; full-length homomeric pentamer; cRNA from pGEMHE vector injected into Xenopus laevis oocytes
Assay: two-electrode voltage clamp, Xenopus oocytes
Type: cell-based

T1 sequence (P28476 21-465): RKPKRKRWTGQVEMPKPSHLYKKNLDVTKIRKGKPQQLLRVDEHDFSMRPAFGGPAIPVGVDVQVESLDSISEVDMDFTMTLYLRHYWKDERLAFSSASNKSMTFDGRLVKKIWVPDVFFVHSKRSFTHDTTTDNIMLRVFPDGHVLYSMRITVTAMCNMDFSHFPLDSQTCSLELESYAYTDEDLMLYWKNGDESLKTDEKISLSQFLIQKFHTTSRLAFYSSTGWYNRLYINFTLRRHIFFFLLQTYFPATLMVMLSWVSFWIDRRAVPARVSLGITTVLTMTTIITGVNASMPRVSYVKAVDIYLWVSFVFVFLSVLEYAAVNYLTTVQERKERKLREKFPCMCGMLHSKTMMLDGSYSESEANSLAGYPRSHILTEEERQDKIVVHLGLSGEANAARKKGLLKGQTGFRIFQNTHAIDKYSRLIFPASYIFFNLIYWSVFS

EC50: 891 nM
Structure (SMILES): NCCCC(=O)O [GABA]
